From patent US10172957B2, “Acid-labile lipophilic prodrugs of cancer chemotherapeutic agents” (priority 2011, dated 2019) come the findings set out here.

In the test the test system is SK-N-AS cells (MDR− Neuroblastoma). The test is described as follows: MTS proliferation assay using SK-N-AS cells. The class given is cell-based. The settings on record: Homo sapiens, SK-N-AS, read-out: IC50 in SK-N-AS. The procedure:
SK-N-AS cells were plated in appropriate growth medium at 5×10^3 per well in 100 μL in 96 well tissue culture plates, Falcon, one plate for each drug to be tested. Column 1 was blank; it contained medium, but no cells. The plates were incubated overnight at 37° C. in 5% CO2 to allow attachment.
Drug diluted in culture media was added to the cells at a concentration of 0.005 nM to 10 μM, in quadruplicate. After 48-72 hours of drug exposure, the MTS agent was added to all wells and incubated 1-6 hrs (37° C., 5% CO2), depending on cell type, as per CellTiter 96® AQueous Non-Radioactive Cell Proliferation Assay (MTS), Promega. Plates were processed using a Bio-Tek Synergy HT Multi-detection microtiter plate reader at 490 nanometer wavelength and data were processed with KC4V.3 software. Data plots of drug concentration vs. absorbance were plotted and the concentration resulting in 50% inhibition (IC50) was extrapolated for each of the tested compounds.
As summarized in Table 1, the IC50 value for each tested compound in the SK-N-AS cell line was determined. The clinical comparator drug, paclitaxel, was included in the experiment to allow comparison of the results of the candidate compounds to a clinically relevant standard in the taxane class.

The structures appear in SMILES notation.

As a reminder, the IC50 is the concentration that gives 50% inhibition. Regarding `CCCCCCCCCCCCCCCC1OCC(COC(=O)O[C@@H]2C(=O)C=C(C)[C@@H]3C[C@H]4OC(=O)C(OC(=O)CC(O)(C(C)C)C(C)C)C5[C@@H](C)[C@@H](O)[C@@]6(O)OC[C@@]54C6[C@@]23C)O1` (stereo partly shown) [ART 488], the IC50 stood at 0.33 ± 0.1 nM.
